Test results published in patent US20240272165A1, “A METHOD TO IDENTIFY EXCEPTIONAL ANTI-TUMOR BENEFIT FROM BRAF TARGETED THERAPIES” (The Brigham and Women's Hospital, priority 2021, published 2024).

Assays:
Malme3M = experiment: growth rate effect of drugs in sgGAPDHS genome-edited cells versus control; type: cell-based; settings: spCas9/sgGAPDHS genome-editing
Source text: FIGS. 8A-8C. GAPDHS is required for BRAF inhibitor sensitivity in vitro. Lentiviral spCas9/sgGAPDHS genome-editing in Malme3M 8A) reduces protein levels (WB) but not signaling consequences following vemurafenib or PD-0325901. 8B) reduction in the inherent NAD+/NADH ratio is seen, but not treatment affected changes; however the basal NADP+/NADPH ratio is higher and treatment causes divergent changes. 8C) Growth rates are less affected by vemurafenib, PD-0325901, cobimetinib, and PLX7904 due to sgGAPDHS targeting. Significance using 2-sided, 2-sample t-test; *p<0.05; **p<0.01.
We generated short-guide RNA (sgRNA) for CRISPR/Cas9-mediated genome-editing within the pLentiCRISPRv2 system to assess whether GAPDHS regulates sensitivity to BRAF-targeted drugs through the metabolic state. […] (FIG. 8C). […] We will expand these analyses to also include SKMEL28 and UACC62, and assess dabrafenib and encorafenib. We will also measure basal and changes following BRAF/MEK-inhibitor on the inherent metabolic state, measured as NAD(P)+/NAD(P)H ratios and GAPDH/S activity.

SKMEL2(NRAS-Q61R) = experiment: drug-mediated growth inhibition as percentage of baseline doubling rate; type: cell-based; settings: NRAS-mutant SKMEL2
Source text: FIGS. 5A-5B. Response to BRAF/MEK inhibition in melanoma cells was associated with the inherent metabolic state. 5A) Effects on cell doubling rates caused by vemurafenib and PD0325901 treatment in melanoma and carcinoma cell lines. […] 5B) Pearson metric of PD-0325901 growth rate effects used on gene-level transcription data (HuExon 1.0ST) for Gene Set Enrichment Analysis (GSEA) identified specific pathways associated with sensitivity, particularly oxidative phosphorylation, and resistance to BRAF/MEK inhibition.
Because melanoma cells undergo metabolic shift in response to BRAF- and MEK-targeted therapy, we wanted to characterize the drug sensitivities across a melanoma cell line cohort (FIG. 4A). To ensure that rapidly growing cells versus slow were compared in a normalized manner, we assessed the degree of drug-mediated growth inhibition as percentage of the baseline doubling rate for each cell line (FIG. 5A). This approach was based on classical chemotherapy effect measures [26;27 recently used by others].

Cc1nc(NC(=O)N2CCC[C@H]2C(N)=O)sc1-c1ccnc(C(C)(C)C(F)(F)F)c1 [BYL719]
sensitivity (measured as growth rate effect) of sgGAPDHS cells versus control (Malme3M): did not, however, observe reduced sensitivity

O=C(NOC[C@H](O)CO)c1ccc(F)c(F)c1Nc1ccc(I)cc1F [PD-0325901]
sensitivity (measured as growth rate effect) of sgGAPDHS cells versus control (Malme3M): reduced sensitivity

CCN(C)S(=O)(=O)Nc1ccc(F)c(C(=O)c2c[nH]c3ncc(-c4cnc(C5CC5)nc4)cc23)c1F [PLX7904]
sensitivity (measured as growth rate effect) of sgGAPDHS cells versus control (Malme3M): reduced sensitivity

O=C(c1ccc(F)c(F)c1Nc1ccc(I)cc1F)N1CC(O)([C@@H]2CCCCN2)C1 [cobimetinib]
sensitivity (measured as growth rate effect) of sgGAPDHS cells versus control (Malme3M): reduced sensitivity

CCCS(=O)(=O)Nc1ccc(F)c(C(=O)c2c[nH]c3ncc(-c4ccc(Cl)cc4)cc23)c1F [vemurafenib]
doubling rate under BRAF inhibitor, % of normal doubling rate (SKMEL2(NRAS-Q61R)): 100%
